Measured values reported in patent US20180289605A1, “NON-AQUEOUS COMPOSITION FOR HAIR FRIZZ REDUCTION” (The Procter & Gamble Company, priority 2017, published 2018).

Experiments:
[1] = Dynamic Vapor Sorption (DVS) % water reduction of treated hair
Description: The % water reduction is calculated as follows:
% Water reduction=[(B−A)×100]/B

[2] = Additional evaluations: expert rating of hair switches for frizz, clean feel and greasy feel; settings: non-aqueous compositions, Tables 9 and 10
Description: […] The switch is kept at high humidity (above 85%) for 2 hours. Then, ten experts are asked to rate each hair switch in terms of frizz, clean feel, and greasy feel, based on a 5 point scale, 5 being the highest and 1 being the lowest rating.
Additional non-aqueous leave-on treatment compositions are prepared (Tables 9 and 10) according to the procedure described above, which are used to treat hair switches using the procedure described above (amount of 0.10 g of composition per g of hair). The switch is kept at high humidity (above 85%) for 2 hours. Then, ten experts are asked to rate each hair switch in terms of frizz, clean feel and greasy feel, based on a 5 point scale, 5 being the highest and 1 being the lowest rating.

[3] = Class I materials, 1% wt/vol, hair 0% RH versus 90% RH, versus control hair
[4] = Class II materials, hair 0% RH versus 90% RH, versus control hair

Compound | Results of hair switch rating in words (frizz protection, clean feel, greasy feel) [2] | % Water reduction [1, 4] [%] | other results
O=C(O)c1ccccc1O [Salicylic acid] | provide fizz protection with clean feel and without greasy feel negative |  | % Water reduction ([1]; Table 6, 1% salicylic acid in ethanol:water (50:50), final pH 3.2 (column pH 3)): 30%; % Water reduction ([1]; Table 6, 1% salicylic acid in ethanol:water (50:50), final pH 4.2): 27%; % Water reduction ([1]; Table 6, 1% salicylic acid in ethanol:water (50:50), final pH 7): 22%; % Water reduction ([1]; Table 6, 1% salicylic acid in ethanol:water (50:50), final pH 10): 15%
O=C(O)c1ccc(O)c(O)c1 [3,4-Dihydroxybenzoic acid] |  |  | % Water reduction [1, 3]: 20%
CCCCCCCC/C=C\CCCCCCCC(=O)OCC(O)CO (stereo not shown) [Glyceryl monooleate] |  | 5 | 
O=C(O)c1ccc(O)cc1O [2,4-Dihydroxybenzoic acid] | provide fizz protection with clean feel and without greasy feel negative |  | % Water reduction [1, 3]: 30%
CCCCCCCCCCCCCC(=O)OC(C)C [Isopropyl myristate] |  | 12 | 
CC(C)C(=O)O [Isobutyric acid] |  | 5 | 
CCCCCC[C@@H](O)C/C=C\CCCCCCCC(=O)O [Ricinoleic acid] |  | 8.8 | 
O=C(O)c1cc(Cl)ccc1O [5-Chlorosalicylic acid] | provide fizz protection with clean feel and without greasy feel negative |  | 
COc1cc(/C=C/C(=O)O)ccc1O [Trans-Ferulic Acid] |  |  | % Water reduction [1, 3]: 6%
O=C(O)c1cccc(O)c1 [3-Hydroxybenzoic Acid] |  |  | % Water reduction [1, 3]: 20%
Nc1ccc(O)cc1 [4-Aminophenol] |  |  | % Water reduction [1, 3]: 10%
Sorbitan caprylate |  | 11 | 
CCCCCCCCC(CO)CCCCCC (stereo not shown) [2-Hexyl-1-decanol] | provide frizz protection with clean feel and without greasy feel negative | 11 | 
CCCCCCCC/C=C\CCCCCCCC(=O)O [Oleic Acid] |  | 14 | 
CC(C)CCCCCCCCCCCCCCCOC(=O)CCCCCCCCCCCCCCC(C)C [Isostearyl isostearate] | provide frizz protection with clean feel and without greasy feel negative | 11 | 
CCOC(=O)c1cc(O)c(O)c(O)c1 [Ethyl gallate] |  | 17 | 
O=C(OCCO)c1ccccc1O [2-Hydroxyethyl salicylate] | provide frizz protection with clean feel and without greasy feel negative | 10 | 
CCCCC/C=C\C/C=C\CCCCCCCC(=O)OCC [Ethyl linoleate] |  | 8 | 
O=S(=O)(O)c1ccc(O)cc1 [4-Hydroxybenzenesulphonic acid] | provide fizz protection with clean feel and without greasy feel negative |  | 
C/C(=C\CO)CCC[C@H](C)CCC[C@H](C)CCCC(C)C [Phytol] |  | 14 | 
